Source: ChEMBL document CHEMBL1201862, “PubChem BioAssay data set” (2004)
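Growth conditions: 96-well plates. Treatment: test compound, 48 hours, 5 concentrations. Analysis: linear interpolation between bracketing concentrations; unreached endpoints set to highest concentration. Here, GI50 denotes the concentration required for 50% inhibition of growth.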 Calls of active or inactive are those of the source. Cut-off read from the data, not from the text of the source: active = GI50 up to about 1.1 µM and inactive = higher.

Columns and labels:
Assay in all cases: NCI-60 cell line screen, 48 h
SK-MEL-2 = system: SK-MEL-2
KM12 = system: KM12
SK-MEL-28 = system: SK-MEL-28
786-0 = system: 786-0
HCT-15 = system: HCT-15
K562 = system: K562
TK-10 = system: TK-10
HL-60 = system: HL-60
EKVX = system: EKVX
MOLT-4 = system: MOLT-4
OVCAR-8 = system: OVCAR-8
UO-31 = system: UO-31
ACHN = system: ACHN
UACC-257 = system: UACC-257
CAKI-1 = system: CAKI-1
NCI/ADR-RES = system: NCI/ADR-RES
MDA-MB-435 = system: MDA-MB-435
DU-145 = system: DU-145
Hs-578T = system: Hs-578T
MDA-N = system: MDA-N

COC(=O)/C(=N/NC(N)=O)C(C(=O)OC)C(=O)C(=O)Nc1ccc(Cl)cc1 (centres undefined)
GI50 (SK-MEL-2): > 100 µM (inactive) | GI50 (KM12): > 100 µM (inactive) | GI50 (SK-MEL-28): > 100 µM (inactive) | GI50 (786-0): > 100 µM (inactive) | GI50 (HCT-15): > 86.5 µM | GI50 (K562): > 43.6 µM (inactive) | GI50 (TK-10): > 100 µM (inactive) | GI50 (HL-60): > 76.2 µM (inactive) | GI50 (EKVX): > 100 µM (inactive) | GI50 (MOLT-4): > 100 µM (inactive) | GI50 (OVCAR-8): > 100 µM (inactive) | GI50 (UO-31): > 100 µM (inactive) | GI50 (ACHN): > 100 µM (inactive) | GI50 (UACC-257): > 100 µM (inactive) | GI50 (CAKI-1): > 100 µM (inactive)

O=C(Nc1ccc(Cl)cc1)c1cc(S(=O)(=O)Nc2nnc3c(Cl)cc(C(F)(F)F)cn23)c(S)cc1Cl
GI50 (SK-MEL-2): 15 µM (inactive) | GI50 (NCI/ADR-RES): > 100 µM (inactive) | GI50 (KM12): 50.4 µM (inactive) | GI50 (SK-MEL-28): > 100 µM (inactive) | GI50 (MDA-MB-435): 49.9 µM (inactive) | GI50 (786-0): > 100 µM (inactive) | GI50 (HCT-15): > 100 µM | GI50 (DU-145): > 100 µM (inactive) | GI50 (K562): > 100 µM (inactive) | GI50 (Hs-578T): 46.5 µM (inactive) | GI50 (TK-10): > 100 µM (inactive) | GI50 (HL-60): > 100 µM (inactive) | GI50 (EKVX): > 100 µM (inactive) | GI50 (MOLT-4): 66.8 µM (inactive) | GI50 (OVCAR-8): > 100 µM (inactive) | GI50 (UO-31): > 100 µM (inactive) | GI50 (ACHN): > 100 µM (inactive) | GI50 (UACC-257): > 100 µM (inactive) | GI50 (CAKI-1): > 100 µM (inactive)

COC(=O)C1=C(C(=O)OC)C(C(=O)c2ccccc2)N2N=C(c3ccc(Cl)cc3)C=CC12 (centres undefined)
GI50 (SK-MEL-2): > 100 µM (inactive) | GI50 (NCI/ADR-RES): 8.07 µM (inactive) | GI50 (KM12): 13.1 µM (inactive) | GI50 (SK-MEL-28): > 100 µM (inactive) | GI50 (MDA-MB-435): 9.44 µM (inactive) | GI50 (786-0): > 100 µM (inactive) | GI50 (HCT-15): 9.62 µM | GI50 (DU-145): > 100 µM (inactive) | GI50 (K562): 30.3 µM (inactive) | GI50 (TK-10): 2.85 µM (inactive) | GI50 (HL-60): 3.85 µM (inactive) | GI50 (EKVX): 8.81 µM (inactive) | GI50 (MOLT-4): 5.69 µM (inactive) | GI50 (OVCAR-8): 12.4 µM (inactive) | GI50 (UO-31): > 100 µM (inactive) | GI50 (ACHN): > 100 µM (inactive) | GI50 (UACC-257): > 100 µM (inactive) | GI50 (CAKI-1): > 100 µM (inactive) | GI50 (MDA-N): 15.3 µM (inactive)

O=C(Nc1cccc(Cl)c1)C(=O)C(C(=O)c1ccc2ccccc2c1)C1OC(=O)c2ccccc21 (centres undefined)
GI50 (SK-MEL-2): 14.6 µM (inactive) | GI50 (KM12): 22.6 µM (inactive) | GI50 (SK-MEL-28): 9.62 µM (inactive) | GI50 (786-0): 10.6 µM (inactive) | GI50 (HCT-15): > 10 µM | GI50 (K562): 16.1 µM (inactive) | GI50 (TK-10): 29 µM (inactive) | GI50 (HL-60): 9.16 µM (inactive) | GI50 (EKVX): 32.7 µM (inactive) | GI50 (MOLT-4): 3.99 µM (inactive) | GI50 (OVCAR-8): 13.9 µM (inactive) | GI50 (UO-31): 14.1 µM (inactive) | GI50 (ACHN): 25.4 µM (inactive) | GI50 (UACC-257): 17 µM (inactive) | GI50 (CAKI-1): 18.5 µM (inactive)

CCCCCCCCCC(=O)OCC1OC(n2cc(F)c(=O)[nH]c2=O)C(N)C(OC(=O)CCCCCCCCC)C1O (centres undefined)
GI50 (SK-MEL-2): 15.5 µM (inactive) | GI50 (KM12): 19.1 µM (inactive) | GI50 (SK-MEL-28): 16.7 µM (inactive) | GI50 (786-0): 18.4 µM (inactive) | GI50 (HCT-15): 18.2 µM | GI50 (K562): 16.7 µM (inactive) | GI50 (TK-10): 36.1 µM (inactive) | GI50 (HL-60): 23.3 µM (inactive) | GI50 (EKVX): 18.2 µM (inactive) | GI50 (MOLT-4): 14.1 µM (inactive) | GI50 (OVCAR-8): 18.2 µM (inactive) | GI50 (UO-31): 21.6 µM (inactive) | GI50 (ACHN): 40.2 µM (inactive) | GI50 (UACC-257): 20 µM (inactive) | GI50 (CAKI-1): 38.2 µM (inactive)

Oc1cc(-c2ccc3ccccc3c2)nc2ncccc12
GI50 (SK-MEL-2): 4.95 µM (inactive) | GI50 (NCI/ADR-RES): 4.4 µM (inactive) | GI50 (KM12): 4.88 µM (inactive) | GI50 (SK-MEL-28): 8.63 µM (inactive) | GI50 (786-0): 12.1 µM (inactive) | GI50 (HCT-15): 4.18 µM | GI50 (DU-145): 19.9 µM (inactive) | GI50 (K562): 2.7 µM (inactive) | GI50 (Hs-578T): 9.35 µM (inactive) | GI50 (TK-10): 19.8 µM (inactive) | GI50 (EKVX): 33.2 µM (inactive) | GI50 (MOLT-4): 4.06 µM (inactive) | GI50 (OVCAR-8): 23 µM (inactive) | GI50 (UO-31): 18.1 µM (inactive) | GI50 (ACHN): 31.9 µM (inactive) | GI50 (UACC-257): 12.4 µM (inactive)

NC(=O)CN1C=CCC(C(N)=O)=C1 [CARICOTAMIDE]
GI50 (SK-MEL-2): > 100 µM (inactive) | GI50 (NCI/ADR-RES): > 100 µM (inactive) | GI50 (KM12): > 100 µM (inactive) | GI50 (MDA-MB-435): > 100 µM (inactive) | GI50 (786-0): > 100 µM (inactive) | GI50 (HCT-15): > 100 µM | GI50 (DU-145): > 100 µM (inactive) | GI50 (K562): > 100 µM (inactive) | GI50 (HL-60): > 100 µM (inactive) | GI50 (EKVX): > 100 µM (inactive) | GI50 (MOLT-4): > 100 µM (inactive) | GI50 (OVCAR-8): > 100 µM (inactive) | GI50 (UO-31): > 100 µM (inactive) | GI50 (ACHN): > 100 µM (inactive) | GI50 (UACC-257): > 100 µM (inactive) | GI50 (CAKI-1): > 100 µM (inactive) | GI50 (MDA-N): > 100 µM (inactive)

C/C=C1/C(=O)O[C@]23C=C[C@@H]4C(C(=O)OC)=CO[C@H](O[C@@H]12)[C@@H]43 [PLUMERICIN]
GI50 (SK-MEL-2): 1.44 µM (inactive) | GI50 (NCI/ADR-RES): 0.676 µM (active) | GI50 (KM12): 2.28 µM (inactive) | GI50 (SK-MEL-28): 1 µM (active) | GI50 (HCT-15): 0.671 µM | GI50 (K562): 0.652 µM (active) | GI50 (HL-60): 0.24 µM (active) | GI50 (EKVX): 1.3 µM (inactive) | GI50 (MOLT-4): 0.459 µM (active) | GI50 (OVCAR-8): 0.594 µM (active) | GI50 (UO-31): 3.12 µM (inactive) | GI50 (UACC-257): 0.592 µM (active) | GI50 (CAKI-1): 1.14 µM (inactive)
